Data on 36 compounds can be found in patent US20060264419A1 (priority 2003, published 2006).

This test has as its target 5-HT2A receptors (Rattus norvegicus, UniProt P14842). Description: in-vitro affinity to 5-HT2A receptors, displacement of [3H]ketanserine (Example A1). Format: binding. The source says: The 5-HT2A receptors are exposed both to [^3H]ketanserine (a substance which is known for its affinity to the receptor) and also to the test compound. The decrease in the affinity of [^3H]ketanserine to the receptor is an indication of the affinity of the test substance to the 5-HT2A receptor.
Background: Loss of bound radioactivity is the signal in a displacement assay; it reports binding, not function.

Setting [1] is: target not given, description names affinity to 5-HT2A receptors, read-out: IC50.

Where two headings read alike, the source gives them in different places.

5-HT2A receptors, sequence (P14842 whole entry): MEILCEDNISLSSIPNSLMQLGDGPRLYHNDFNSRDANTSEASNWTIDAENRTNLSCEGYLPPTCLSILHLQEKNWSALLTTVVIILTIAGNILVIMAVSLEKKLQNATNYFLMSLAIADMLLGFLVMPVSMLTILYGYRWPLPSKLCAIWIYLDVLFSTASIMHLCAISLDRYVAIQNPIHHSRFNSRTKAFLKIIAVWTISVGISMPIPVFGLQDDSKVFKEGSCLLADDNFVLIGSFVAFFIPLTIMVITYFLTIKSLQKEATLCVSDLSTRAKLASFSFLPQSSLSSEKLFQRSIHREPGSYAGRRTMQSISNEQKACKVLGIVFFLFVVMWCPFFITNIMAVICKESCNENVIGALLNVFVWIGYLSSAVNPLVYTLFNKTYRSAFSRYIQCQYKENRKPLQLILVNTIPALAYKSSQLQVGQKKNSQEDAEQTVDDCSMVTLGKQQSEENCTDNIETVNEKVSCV

A word on the IC50: it is the concentration at which inhibition is half-maximal. For `COCCN(C)Cc1cnn(-c2ccc(-c3ccccc3F)nc2)c1-c1ccccc1F` [(157), {5-(2-Fluorophenyl)-1-[6-(2-fluorophenyl)pyridin-3-yl]-1H-pyrazol-4-ylmethyl}-(2-methoxyethyl)methylamine], the 50% inhibitory concentration (IC50) under setting [1] worked out at 2000 nM. Same read-out and setting: the figure for `Fc1ccccc1-c1c(CNCc2nc3ccccc3[nH]2)cnn1-c1ccc(-c2ccccc2)cc1` [(133), (1H-Benzoimidazol-2-ylmethyl)-[1-biphenyl-4-yl-5-(2-fluorophenyl)-1H-pyrazol-4-ylmethyl]amine] is 76 nM.

In the case of `O=c1ccccn1Cc1cnn(-c2ccc(-c3ccccc3)cc2)c1-c1ccccc1F` [Example 1012, 1-[1-Biphenyl-4-yl-5-(2-fluorophenyl)-1H-pyrazol-4-ylmethyl]-1H-pyridin-2-one], the IC50 (read-out: HT2A IC50) is 200 nM.

`CN1CCN(Cc2cnn(-c3ccc(-c4ccc(F)cc4)cc3)c2-c2ccc(F)cc2)CC1` [(100), 1-[1-(4′-Fluorobiphenyl-4-yl)-5-(4-fluorophenyl)-1H-pyrazol-4-ylmethyl]-4-methylpiperazine]: the half-inhibitory concentration (IC50) under setting [1] turned out to be 25 nM.

Regarding `Fc1ccc(-c2ccc(-n3ncc(CNc4ccon4)c3-c3ccccc3F)cn2)cc1` [(174), {5-(2-Fluorophenyl)-1-[6-(4-fluorophenyl)pyridin-3-yl]-1H-pyrazol-4-ylmethyl}isoxazol-3-ylamine], the IC50 under setting [1] stood at 320 nM. For the compound `CN1CCN(Cc2cnn(-c3ccc(-c4ccccc4Cl)cc3)c2-c2ccccc2F)CC1` [Example 984, 1-[1-(2′-Chlorobiphenyl-4-yl)-5-(2-fluoro-phenyl)-1H-pyrazol-4-ylmethyl]-4-methyl-piperazine], the half-inhibitory concentration (IC50) (read-out: HT2A IC50) stood at 120 nM. For `CN(C)C1CCN(Cc2cnn(-c3ccc(-c4ccccc4)cc3)c2-c2ccccc2F)CC1` [(37), {1-[1-Biphenyl-4-yl-5-(2-fluorophenyl)-1H-pyrazol-4-ylmethyl]-piperidin-4-yl}dimethylamine], the IC50 under setting [1] came to 200 nM. As to `CN1CCN(Cc2cnn(-c3ccc(-n4cccc4)cc3)c2-c2ccccc2F)CC1` [(106), 1-[5-(2-Fluorophenyl)-1-(4-pyrrol-1-ylphenyl)-1H-pyrazol-4-ylmethyl]-4-methylpiperazine], the IC50 under setting [1] is 17 nM. Same read-out and setting: as for `CN1CCN(Cc2cnn(-c3ccc(-c4cc(F)ccc4F)cc3)c2-c2ccc(F)cc2)CC1` [(101), 1-[1-(2′,5′-Difluorobiphenyl-4-yl)-5-(4-fluorophenyl)-1H-pyrazol-4-ylmethyl]-4-methylpiperazine], the figure is 240 nM. Consider `O=c1ccccn1Cc1cnn(-c2ccc(-c3ccccc3)cc2)c1-c1ccccc1F` [(191), 1-[1-Biphenyl-4-yl-5-(2-fluorophenyl)-1H-pyrazol-4-ylmethyl]-1H-pyridin-2-one], for which the half-maximal inhibitory concentration (IC50) under setting [1] came to 200 nM. On to `CN1CCN(Cc2cnn(-c3ccc(-c4cccnc4)cc3)c2-c2ccccc2F)CC1` [(120), 1-[5-(2-Fluorophenyl)-1-(4-pyridin-3-ylphenyl)-1H-pyrazol-4-ylmethyl]-4-methylpiperazine], for which the concentration for half-maximal inhibition (IC50) under setting [1] was 170 nM. `Fc1ccc(F)c(-c2ccc(-n3ncc(CNc4cc[nH]n4)c3-c3ccccc3F)cc2)c1` [Example 1005, [1-(2′,5′-Difluorobiphenyl-4-yl)-5-(2-fluoro-phenyl)-1H-pyrazol-4-ylmethyl]-(1H-pyrazol-3-yl)amine]: under “read-out: HT2A IC50”, the IC50 stood at 180 nM. As for `Fc1ccccc1-c1c(C=NNC2=NCCN2)cnn1-c1ccc(-c2ccccc2)cc1` [(166), N-[1-Biphenyl-4-yl-5-(2-fluorophenyl)-1H-pyrazol-4-yl-methylene]-N′-(4,5-dihydro-1H-imidazol-2-yl)hydrazine], the IC50 under setting [1] is 1200 nM. In the case of `O=C(CNCc1cnn(-c2ccc(-c3ccccc3)cc2)c1-c1ccccc1F)Nc1ccc([N+](=O)[O-])cc1` [(129), 2-{[1-Biphenyl-4-yl-5-(2-fluorophenyl)-1H-pyrazol-4-ylmethyl]-amino}-N-(4-nitrophenyl)acetamide], the IC50 under setting [1] was found to be 100 nM. For `Fc1ccccc1-c1c(CN2CCC2)cnn1-c1ccc(-c2ccccc2)cc1` [(160), 4-Azetidin-1-ylmethyl-1-biphenyl-4-yl-5-(2-fluorophenyl)-1H-pyrazole], the concentration for half-maximal inhibition (IC50) under setting [1] worked out at 47 nM. Same read-out and setting: the figure for `CN1CCN(Cc2cnn(-c3ccc(-c4ccccc4)nc3)c2-c2cccnc2)CC1` [(198), 1-Methyl-4-[1-(6-phenylpyridin-3-yl)-5-pyridin-3-yl-1H-pyrazol-4-ylmethyl]piperazine] is 140 nM; for `Fc1ccc(-c2ccc(-n3ncc(CN4CCCC4)c3-c3ccccc3F)cn2)cc1` [(142), 2-(4-Fluorophenyl)-5-[5-(2-fluorophenyl)-4-pyrrolidin-1-ylmethylpyrazol-1-yl]pyridine] it is 75 nM; for `COCCN(C)Cc1cnn(-c2ccc(-c3ccc(F)cc3)nc2)c1-c1ccccc1F` [(156), {5-(2-Fluorophenyl)-1-[6-(4-fluorophenyl)pyridin-3-yl]-1H-pyrazol-4-ylmethyl}-(2-methoxyethyl)methylamine] it is 300 nM. As for `CCOC(=O)N1CCN(Cc2cnn(-c3ccc(-c4ccccc4)cc3)c2-c2ccccc2F)CC1` [Example 957, Ethyl 4-[1-biphenyl-4-yl-5-(2-fluoro-phenyl)-1H-pyrazol-4-ylmethyl]piperazine-1-carboxylate], the IC50 (read-out: HT2A IC50) was determined as 58 nM. Turning to `Fc1ccccc1-c1c(CN2CCC(Cc3cccnc3)CC2)cnn1-c1ccc(-c2ccccc2)cc1` [(195), 3-{1-[1-Biphenyl-4-yl-5-(2-fluorophenyl)-1H-pyrazol-4-ylmethyl]piperidin-4-ylmethyl}pyridine], the 50% inhibitory concentration (IC50) under setting [1] was 66 nM. As for `Fc1ccccc1-c1c(CN2CCC(N3CCOCC3)CC2)cnn1-c1ccc(-c2ccccc2)cc1` [(25), 4-{1-[1-Biphenyl-4-yl-5-(2-fluorophenyl)-1H-pyrazol-4-ylmethyl]piperidin-4-yl}morpholine], the IC50 under setting [1] came out at 560 nM. In the case of `Fc1ccccc1-c1c(CNc2ccon2)cnn1-c1ccc(-c2ccccc2)cc1` [(138), [1-Biphenyl-4-yl-5-(2-fluorophenyl)-1H-pyrazol-4-ylmethyl]-isoxazol-3-ylamine], the concentration for half-maximal inhibition (IC50) under setting [1] was determined as 240 nM. Consider `NC(=O)CN1CCN(Cc2cnn(-c3ccc(-c4ccccc4)cc3)c2-c2ccccc2F)CC1` [Example 1042, 2-{4-[1-Biphenyl-4-yl-5-(2-fluoro-phenyl)-1H-pyrazol-4-ylmethyl]piperazin-1-yl}acetamide], for which the half-maximal inhibitory concentration (IC50) (read-out: HT2A IC50) was 360 nM.

Regarding `Fc1ccc(CCN2CCN(Cc3cnn(-c4ccccn4)c3-c3ccccc3F)CC2)cc1` [Example 950, 1-[2-(4-Fluorophenyl)ethyl]-4-[5-(2-fluoro-phenyl)-1-pyridin-2-yl-1H-pyrazol-4-ylmethyl]-piperazine], the IC50 (read-out: HT2A IC50) was 53 nM.

In the case of `CN1CCN(Cc2cnn(-c3ccc(OC(F)(F)F)cc3)c2-c2ccccc2F)CC1` [(115), 1-[5-(2-Fluorophenyl)-1-(4-trifluoromethoxyphenyl)-1H-pyrazol-4-ylmethyl]-4-methylpiperazine], the IC50 under setting [1] came to 270 nM. Take `CCOC(=O)N1CCN(Cc2cnn(-c3ccc(-c4ccccc4)cc3)c2-c2ccccc2F)CC1` [(182), Ethyl 4-[1-biphenyl-4-yl-5-(2-fluorophenyl)-1H-pyrazol-4-ylmethyl]piperazine-1-carboxylate]: under setting [1], the IC50 was 58 nM. Same read-out and setting: as for `CN1CCN(Cc2cnn(-c3ccc(-c4cc(F)ccc4F)cc3)c2-c2ccccc2)CC1` [(68), 1-[1-(2′,5′-Difluorobiphenyl-4-yl)-5-phenyl-1H-pyrazol-4-ylmethyl]-4-methylpiperazine], the figure is 110 nM; as for `O=C(Nc1ccccc1)N1CCN(Cc2cnn(-c3ccc(-c4ccccc4)cc3)c2-c2ccccc2F)CC1` [(126), N-Phenyl-4-[1-biphenyl-4-yl-5-(2-fluorophenyl)-1H-pyrazol-4-ylmethyl]piperazine-1-carboxamide], 790 nM. Turning to `OCCN1CCN(Cc2cnn(-c3ccc(-c4ccccc4)cc3)c2-c2ccccc2F)CC1` [Example 1032, 2-{4-[1-Biphenyl-4-yl-5-(2-fluoro-phenyl)-1H-pyrazol-4-ylmethyl]piperazin-1-yl}ethanol], the half-maximal inhibitory concentration (IC50) (read-out: HT2A IC50) is 280 nM. As for `Fc1ccccc1-c1c(CN2CCC(Cc3cccnc3)CC2)cnn1-c1ccc(-c2ccccc2)cc1` [Example 962, 3-{1-[1-Biphenyl-4-yl-5-(2-fluoro-phenyl)-1H-pyrazol-4-ylmethyl}piperidin-4-ylmethyl]pyridine], the IC50 (read-out: HT2A IC50) was determined as 66 nM. As for `CN1CCC(N(C)Cc2cnn(-c3ccc(-c4ccc(F)cc4)nc3)c2-c2ccccc2F)CC1` [(143), {5-(2-Fluorophenyl)-1-[6-(4-fluorophenyl)pyridin-3-yl]-1H-pyrazol-4-ylmethyl}methyl-(1-methylpiperidin-4-yl)amine], the IC50 under setting [1] was determined as 250 nM. On the same count and under the same terms, the figure for `CN1CCN(Cc2cnn(-c3ccc(-c4ccccc4)nc3)c2-c2ccccc2F)CC1` [(57), 1-[5-(2-Fluorophenyl)-1-(6-phenylpyridin-3-yl)-1H-pyrazol-4-ylmethyl]-4-methylpiperazine] is 220 nM. As to `CCN1CCN(Cc2cnn(-c3ccc(-c4ccccc4)cc3)c2-c2ccccc2F)CC1` [(90), 1-[1-Biphenyl-4-yl-5-(2-fluorophenyl)-1H-pyrazol-4-ylmethyl]-4-ethylpiperazine], under setting [1], the half-maximal inhibitory concentration (IC50) amounted to 28 nM. Take `Fc1ccccc1-c1c(CNCCCn2ccnc2)cnn1-c1ccc(-c2ccccc2)cc1` [Example 1001, [1-Biphenyl-4-yl-5-(2-fluorophenyl)-1H-pyrazol-4-ylmethyl]-(3-imidazol-1-ylpropyl)amine]: the half-inhibitory concentration (IC50) (read-out: HT2A IC50) was found to be 170 nM. Same read-out and setting: the figure for `CN1CCN(Cc2cnn(-c3ccc(-c4ccc(F)cc4)cc3)c2-c2cc(Cl)cc(Cl)c2)CC1` [Example 1052, 1-[5-(3,5-Dichlorophenyl)-1-(4′-fluoro-biphenyl-4-yl)-1H-pyrazol-4-ylmethyl]-4-methyl-piperazine] is 400 nM. Turning to `Cc1cnc(NCc2cnn(-c3ccc(-c4ccccc4)cc3)c2-c2ccccc2F)s1` [(178), [1-Biphenyl-4-yl-5-(2-fluorophenyl)-1H-pyrazol-4-ylmethyl]-(5-methylthiazol-2-yl)amine], the IC50 under setting [1] came out at 370 nM.
